Assays:
[1] = test system: P. aeruginosa DA7232 (gyrA-T83I, parC-S80L); test: MIC / levofloxacin potentiation, fluoroquinolone-resistant strain; type: cell-based, Pseudomonas aeruginosa; conditions: strain DA7232
Text: (§1) P. aeruginosa ATCC 27853 was obtained from the American Type Culture Collection (ATCC; Manassas, VA, USA). P. aeruginosa multidrug-resistant isolates were obtained from the CDC and FDA Antibiotic Resistance Isolate Bank (Atlanta, GA, USA). P. aeruginosa DA7232 (gyrA-T83I, parC-S80L) was a kind gift from Prof. Dan I. Andersson, Uppsala University, Uppsala, Sweden, and has been characterized elsewhere. P. aeruginosa strains K767 (WT), K1455 (mexAB-oprM overexpressed), K2415 (mexXY-oprM overexpressed), and K3698 (oprM∆) were obtained from Prof. Keith Poole, Queen’s University, Kingston, Ontario, Canada and have been characterized elsewhere. Bacterial cells were grown in cation-adjusted Mueller Hinton (CAMH) media, brain heart infusion broth (BHI), or tryptic soy agar (TSA) plates were all obtained from Becton, Dickinson, and Company (BD; Franklin Lakes, NJ, USA). Aztreonam, ceftazidime, moxifloxacin, levofloxacin, minocycline, tigecycline, chloramphenicol, nitrocefin, and imipenem were purchased from TOKU-E (Bellingham, WA, USA). Azithromycin was purchased from Tokyo Chemical Industry (Portland, OR, USA). Cotrimoxazole was purchased from Toronto Research Chemicals (Toronto, ON, Canada). Doxycycline and polymyxin B were purchased from Sigma-Aldrich (St. Louis, MO, USA). Ethidium bromide (EtBr) and glucose were purchased from VWR (Radnor, PA, USA). MC-04,124 and TXA01182 were synthesized at TAXIS Pharmaceuticals. Carbonyl cyanide 3-chlorophenylhydrazone (CCCP) was purchased from Enzo Life Sciences (Farmingdale, NY, USA). DiOC2 (3) and propidium iodide were obtained from Thermo Fisher Scientific (Waltham, MA, USA).
(§2) MIC assays were performed as described previously.

[2] = test system: 34 MDR P. aeruginosa clinical isolates (CDC & FDA AR Isolate Bank); test: microbe, parasite or virus in culture; type: cell-based, Pseudomonas aeruginosa; conditions: for Levofloxacin MIC fold difference: + labelled EPI […] (TXA09155 head: 50 µg/mL); for Levofloxacin MIC: alone or + labelled EPI […] (TXA09155 head: 50 µg/mL)
Text: as §1, with “Aztreonam, ceftazidime, moxifloxacin, levofloxacin, minocycline, tigecycline, chloramphenicol, nitrocefin, and imipenem were purchased from TOKU-E (Bellingham, WA, USA).” left out, “Cotrimoxazole was purchased from Toronto Research Chemicals (Toronto, ON, Canada). Doxycycline and polymyxin B were purchased from Sigma-Aldrich (St. Louis, MO, USA).” left out
as §2

Cl.NC[C@@H]1CN[C@H](CNC(=O)c2cc3ccc(-c4ccc(F)cc4)cc3[nH]2)C1 [TXA09155, N-(((2S,4R)-4-(aminomethyl)pyrrolidine-2-yl)methyl)-6-(4-fluorophenyl)-1H-indole-2-carboxamide hydrochloride salt]
4 µg/mL: Levofloxacin MIC ([2]; strain AR-0236) | Levofloxacin MIC ([2]; strain AR-0239) | Levofloxacin MIC ([2]; strain AR-0265) | Levofloxacin MIC ([2]; strain AR-0271)
0.125 µg/mL: Levofloxacin MIC ([2]; strain AR-0233)
3.13 µg/mL: lowest concentration that potentiated levofloxacin eight-fold [1]
16 µg/mL: Levofloxacin MIC ([2]; strain AR-0231) | Levofloxacin MIC ([2]; strain AR-0245)
0.063 µg/mL: Levofloxacin MIC ([2]; strain AR-0262)
64: Levofloxacin MIC fold difference ([2]; strain AR-0244) | Levofloxacin MIC fold difference ([2]; strain AR-0252) | Levofloxacin MIC fold difference ([2]; strain AR-0253) | Levofloxacin MIC fold difference ([2]; strain AR-0262) | Levofloxacin MIC fold difference ([2]; strain AR-0267) | Levofloxacin MIC fold difference ([2]; strain AR-0270)
16: Levofloxacin MIC fold difference ([2]; strain AR-0232) | Levofloxacin MIC fold difference ([2]; strain AR-0234) | Levofloxacin MIC fold difference ([2]; strain AR-0239) | Levofloxacin MIC fold difference ([2]; strain AR-0240) | Levofloxacin MIC fold difference ([2]; strain AR-0242) | Levofloxacin MIC fold difference ([2]; strain AR-0256) | Levofloxacin MIC fold difference ([2]; strain AR-0265) | Levofloxacin MIC fold difference ([2]; strain AR-0266) | Levofloxacin MIC fold difference ([2]; strain AR-0269)
2 µg/mL: levofloxacin MIC50 in presence of EPI ([2]; EPI (label) fixed […], 34 MDR isolates, levofloxacin alone 32) | Levofloxacin MIC ([2]; strain AR-0229) | Levofloxacin MIC ([2]; strain AR-0244) | Levofloxacin MIC ([2]; strain AR-0249) | Levofloxacin MIC ([2]; strain AR-0266) | Levofloxacin MIC ([2]; strain AR-0269) | Levofloxacin MIC ([2]; strain AR-0272)
8 µg/mL: levofloxacin MIC90 in presence of EPI ([2]; EPI (label) fixed […], 34 MDR isolates, levofloxacin alone 64) | Levofloxacin MIC ([2]; strain AR-0230) | Levofloxacin MIC ([2]; strain AR-0240) | Levofloxacin MIC ([2]; strain AR-0241) | Levofloxacin MIC ([2]; strain AR-0246) | Levofloxacin MIC ([2]; strain AR-0250) | Levofloxacin MIC ([2]; strain AR-0260)
0.5 µg/mL: Levofloxacin MIC ([2]; strain AR-0232) | Levofloxacin MIC ([2]; strain AR-0234) | Levofloxacin MIC ([2]; strain AR-0248) | Levofloxacin MIC ([2]; strain AR-0252) | Levofloxacin MIC ([2]; strain AR-0267) | Levofloxacin MIC ([2]; strain AR-0270)
8: Levofloxacin MIC fold difference ([2]; strain AR-0230) | Levofloxacin MIC fold difference ([2]; strain AR-0236) | Levofloxacin MIC fold difference ([2]; strain AR-0241) | Levofloxacin MIC fold difference ([2]; strain AR-0245) | Levofloxacin MIC fold difference ([2]; strain AR-0246) | Levofloxacin MIC fold difference ([2]; strain AR-0250) | Levofloxacin MIC fold difference ([2]; strain AR-0258) | Levofloxacin MIC fold difference ([2]; strain AR-0259) | Levofloxacin MIC fold difference ([2]; strain AR-0260) | Levofloxacin MIC fold difference ([2]; strain AR-0271) | Levofloxacin MIC fold difference ([2]; strain AR-0272)
≤ 0.008 µg/mL: Levofloxacin MIC ([2]; strain AR-0247)
256: Levofloxacin MIC fold difference ([2]; strain AR-0247)
0.031 µg/mL: Levofloxacin MIC ([2]; strain AR-0253) | Levofloxacin MIC ([2]; strain AR-0256)
4: Levofloxacin MIC fold difference ([2]; strain AR-0231)
0.25 µg/mL: Levofloxacin MIC ([2]; strain AR-0261)
1 µg/mL: Levofloxacin MIC ([2]; strain AR-0242) | Levofloxacin MIC ([2]; strain AR-0264)
32: Levofloxacin MIC fold difference ([2]; strain AR-0229) | Levofloxacin MIC fold difference ([2]; strain AR-0233) | Levofloxacin MIC fold difference ([2]; strain AR-0248) | Levofloxacin MIC fold difference ([2]; strain AR-0249) | Levofloxacin MIC fold difference ([2]; strain AR-0261) | Levofloxacin MIC fold difference ([2]; strain AR-0264)
0.062 µg/mL: Levofloxacin MIC ([2]; strain AR-0258) | Levofloxacin MIC ([2]; strain AR-0259)

— PMC9220351, “Evaluation of a Conformationally Constrained Indole Carboxamide as a Potential Efflux Pump Inhibitor in Pseudomonas aeruginosa” (Antibiotics, 2022)
